# In US20070025986A1, “Modulation of HCN channels by second messengers” (priority 2003, published 2007):
# Key:
# [1] = test system: DmHCN (HCN channel of Drosophila melanogaster); type: cell-based
# HCN4 channel = conditions: for Effect on channel gating: 200 nM
# HCN1 channel = assay: Two microelectrode voltage clamp (2MEV) of HCN1 and HCN1 mutants expressed in Xenopus oocytes; type: cell-based, mouse; conditions: for Effect on channel gating: wild type HCN1, 200 nM; for Effect on channel activation: HCN1-R538E, 30 μM, 60 minutes perfusion
# HCN2 channel = conditions: for Effect on channel gating: 200 nM
# Protocol: Electrophysiology-General. Recordings were made in either IOP (excised cell-free inside out patch) or 2 MEV (two microelectrode voltage clamp) configurations from Xenopus oocytes 1-5 days after cRNA injection. In both configurations, the Ag—AgCl ground wire(s) were connected to the bath solution by 3M KCl-2% agar salt bridge electrodes placed downstream of, but close to, the oocyte. All recordings were obtained at room temperature (23-25° C.).
# Electrophysiology-Two microelectrode voltage-clamp recordings. Data were acquired using a Warner Instruments (Hamden, Conn.) OC-725B amplifier, filtered at 1 kHz then digitized at 2 kHz using an ITC-18 interface and recorded with Pulse software (as described above). For most experiments, oocytes were bathed in a recording solution containing (in mM): 107 KCl, 5 NaCl, 10 HEPES (free acid), and 2 MgCl2, pH 7.4, with NaOH. However, to screen for poorly expressing constructs a recording solution containing (in mM): 112 KCl, 10 HEPES (free acid), and 2 MgCl2, pH 7.4, with KOH, was used to maximize the amplitude of the currents. Under these conditions, tail currents were recorded at the holding potential, −30 mV. The microelectrodes were filled with 3M KCl and had resistances of 0.1-0.5 MΩ (I passing) and 1-4 MΩ (V sensing). An active virtual ground was used to clamp the bath.
# Analysis of electrophysiological recordings. “Steady-state” activation curves were determined from the amplitude of tail currents observed after hyperpolarizing voltage steps on return to the indicated potential. For IOP-clamp experiments, the holding potential and the tail potential was −40 mV. For 2 MEV-clamp experiments, the oocytes were held at −30 mV and the tail amplitudes measured at 0 mV. To avert any systematic bias of the determination of the V1/2 in a particular drug and clone combination, at least 10 cells from at least 5 donor frogs were routinely measured with recordings made across a number of weeks.
# Tail current amplitudes were measured by averaging the current during the plateau of the tail after allowing the voltage-clamp to settle and the uncompensated linear capacitance to decay and subtracting from this the baseline current recorded 3s later. […] Current values were plotted versus the hyperpolarization step voltage and fitted with the Boltzmann equation: I(V=A1+A2/{1+exp[(V−V1/2)/s]}, where A1 is an offset caused by a nonzero holding current, A2 is the maximal tail current amplitude, V is voltage during the hyperpolarizing test pulse in millivolts, and V1/2 is the activation midpoint voltage. For each experiment, the tail current data were fitted with the above equation. To average the activation data from different experiments, the tail current amplitudes, I(V), from each individual experiment were normalized by first subtracting the derived A1 parameter and then dividing by A2. The normalized data at each voltage were then averaged, and the averaged data were fitted by the Boltzmann equation (with A1 set at 0 and A2 set at 1).
# plant channel KAT1 = conditions: 200 nM 4βPMA
# [2] = test system: DAG concentration in Xenopus oocytes; conditions: 60 minute incubation; cited from earlier work
# [3] = test system: HCN2 channel (wild type and CNBD-disabled); assay: Modulation of HCN2 activation gating by the PTK inhibitor genistein; type: cell-based, mouse
# Protocol: (§1) The effect of PTK inhibitor genistein on HCN channel activation was studies using wild type and CNBD-disabled HCN channels. Recordings were made in the presence and absence of genistein.
# (§2) Activation of wild type HCN channels and mutant HCN channels with mutation in the C-linker or CNBD domains was recorded in the presence and absence of PTK inhibitor genistein.
# [4] = test system: HCN1 channel (wild type, CNBD-disabled and deletion constructs); assay: Modulation of HCN1 activation gating by the PTK inhibitor genistein; type: cell-based, mouse
# Protocol: as §1, §2
# The results in FIG. 18B show the effect of genistein treatment to activation of HCN1-R538E, HCN1-ΔCNBD and HCN1-ΔCterm. Left Panel: Change in V1/2 (V1/2 Final−V1/2 Initial) in control and genistein treated cells (90 μM for 30 min).
# HCN1-ΔNvΔC channel = molecular target: T1, HCN1-ΔNvΔC channel (Mus musculus, UniProt O88704, A73M); assay: Excised inside-out patch (IOP) clamp of HCN1-ΔNvΔC and basic-residue alanine mutants with 4,5-PIP2; type: biochemical
# T1 construct: HCN1-ΔNvΔCterm (amino acid positions 73 to 390 of mHCN1); expressed in transfected cells; host or cells: Xenopus oocytes (cRNA injection); excised inside-out patches
# T1 sequence (O88704 73-390 A73M): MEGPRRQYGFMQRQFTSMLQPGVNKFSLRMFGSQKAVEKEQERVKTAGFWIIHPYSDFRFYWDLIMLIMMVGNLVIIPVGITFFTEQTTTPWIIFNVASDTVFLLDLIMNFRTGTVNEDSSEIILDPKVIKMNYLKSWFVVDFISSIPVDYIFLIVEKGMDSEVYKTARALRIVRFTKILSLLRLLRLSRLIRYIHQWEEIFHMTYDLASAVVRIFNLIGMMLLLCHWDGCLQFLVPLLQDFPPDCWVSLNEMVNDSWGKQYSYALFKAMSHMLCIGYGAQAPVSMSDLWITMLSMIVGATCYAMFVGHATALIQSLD
# Protocol: Molecular Biology. […] Electrophysiology-General. […] Electrophysiology-Excised cell-free inside-out patch clamp recordings. […] When cAMP was applied, NaCl was replaced with equivalent amount of cAMP. In experiments where 4,5-PIP2, kinase inhibitors or other compounds were included, stock solutions of the compounds dissolved in either DMSO or H2O were added to the recording solutions to an appropriate final concentration. […] It was routinely tested and confirmed that addition of the solvents alone was without effect. Analysis of electrophysiological recordings. […] IOP-clamp was performed to measure the gating activity of the wild type and mutant channels under a “rundown” condition. […] The minimal 4,5-PIP2 responsive mouse HCN1 channel […] of mHCN1), were further mutated to produce the following constructs in which the basic amino acid residues Arginine, Lysine and Histidine are replaced […]), NT2 […], and […]), NT3 […], and […]), NT4 […], and […], and […], and […]), and […]). All individual point mutations were also constructed. The mutants were expressed in Xenopus oocytes. IOP clamp was performed with the mutant channels in the presence and absence of 5 μM 4,5-PIP2. […] Facilitation of HCN channel gating may be effected by direct interaction between 4,5-PIP2 and basic amino acid residues in the cytoplasmic region of the HCN channel. See hypothesis in the legend of FIG. 6.
# HCN2-R591E channel = molecular target: T2, HCN2-R591E channel (Mus musculus, UniProt O88703, R591E); assay: Excised inside-out patch (IOP) clamp of HCN2-R591E after rundown, 4,5-PIP2 rescue; type: biochemical
# T2 construct: expressed in transfected cells; host or cells: Xenopus oocytes (cRNA injection); excised inside-out patches
# T2 sequence (O88703 1-863 R591E): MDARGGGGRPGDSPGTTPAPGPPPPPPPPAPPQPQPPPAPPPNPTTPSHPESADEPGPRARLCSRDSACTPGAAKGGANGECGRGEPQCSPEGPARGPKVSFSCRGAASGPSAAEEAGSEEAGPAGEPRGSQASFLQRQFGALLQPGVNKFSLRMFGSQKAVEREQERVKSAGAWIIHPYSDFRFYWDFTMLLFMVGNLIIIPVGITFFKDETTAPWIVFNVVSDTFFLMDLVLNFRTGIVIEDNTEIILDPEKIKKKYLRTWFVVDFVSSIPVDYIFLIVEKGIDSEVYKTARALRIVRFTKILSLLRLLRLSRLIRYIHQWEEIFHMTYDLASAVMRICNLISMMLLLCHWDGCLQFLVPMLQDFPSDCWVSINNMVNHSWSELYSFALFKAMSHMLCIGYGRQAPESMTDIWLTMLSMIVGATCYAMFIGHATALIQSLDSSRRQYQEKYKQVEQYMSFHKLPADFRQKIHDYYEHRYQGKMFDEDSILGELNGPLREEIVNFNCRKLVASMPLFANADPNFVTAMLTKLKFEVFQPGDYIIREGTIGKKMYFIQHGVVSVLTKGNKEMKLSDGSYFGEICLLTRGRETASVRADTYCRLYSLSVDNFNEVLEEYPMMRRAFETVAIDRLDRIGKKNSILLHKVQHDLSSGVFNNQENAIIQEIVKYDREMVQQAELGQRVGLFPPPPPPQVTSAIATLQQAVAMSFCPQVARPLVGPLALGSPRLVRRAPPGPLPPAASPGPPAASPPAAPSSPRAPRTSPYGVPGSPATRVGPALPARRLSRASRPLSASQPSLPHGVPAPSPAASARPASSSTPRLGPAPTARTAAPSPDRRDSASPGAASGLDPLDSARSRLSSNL
# Protocol: Molecular Biology. […] Electrophysiology-General. […] Electrophysiology-Excised cell-free inside-out patch clamp recordings. […] When cAMP was applied, NaCl was replaced with equivalent amount of cAMP. In experiments where 4,5-PIP2, kinase inhibitors or other compounds were included, stock solutions of the compounds dissolved in either DMSO or H2O were added to the recording solutions to an appropriate final concentration. […] It was routinely tested and confirmed that addition of the solvents alone was without effect. Analysis of electrophysiological recordings. […] An HCN2-[…] construct was expressed in Xenopus oocytes. 2 MEV-clamp recording was performed to measure the gating activity of the HCN2-[…] channel in the intact Xenopus oocytes. IOP-clamp was performed to measure the gating activity of the HCN2-[…] channel under a “rundown” condition. IOP-clamp was also performed in the presence of 4,5-PIP2 to detect the effect of 4,5-PIP2 on the gating activity of the HCN2-[…] channel under a “rundown” condition.
molecule,measurement,setting,value
CCCCCCCCCCCCCC(=O)O[C@@H]1[C@@H](C)[C@@]2(O)[C@@H](C=C(CO)C[C@@]3(O)C(=O)C(C)=C[C@@H]23)[C@@H]2C(C)(C)[C@]12OC(C)=O [4αPMA],Effect on channel gating,[1],unaffected
same,Effect on channel gating,HCN4 channel,unaffected
same,Effect on channel gating,HCN1 channel,unaffected
same,Effect on channel gating,HCN2 channel,unaffected
"CCCCCCCCCCCCCC(=O)O[C@@H]1[C@@H](C)[C@@]2(O)[C@@H](C=C(CO)C[C@]3(O)C(=O)C(C)=C[C@@H]23)[C@@H]2C(C)(C)[C@]12OC(C)=O [4βPMA, 4-βphorbol-1 2myristate-13-acetate]",Effect on channel gating,[1],facilitated
same,ΔV½ WILD TYPE,[1],+9 ± 4
same,Effect on channel activation,plant channel KAT1,insensitive
same,Effect on channel gating,HCN4 channel,facilitated
same,ΔV½ WILD TYPE,HCN4 channel; 30 min in 200 nM 4βPMA,+17 ± 7
same,ΔV½ CA UNCOUPLED,"HCN1 channel; HCN1, 30 min in 200 nM 4βPMA",+29 ± 3
same,ΔV½ CA UNCOUPLED H^+ UNCOUPLED,"HCN1 channel; HCN1, 30 min in 200 nM 4βPMA",+32 ± 5
same,ΔV½ WILD TYPE,"HCN1 channel; HCN1, 30 min in 200 nM 4βPMA",+15 ± 3
same,"4βPMA facilitation of gating in serine, threonine and tyrosine mutants","HCN1 channel; mutants of HCN1-ΔNvΔC, 200 nM 4βPMA, 30 minutes",not affected
same,Effect on channel gating,HCN1 channel,facilitated
same,Effect on channel gating,HCN2 channel,facilitated
same,ΔV½ CA UNCOUPLED,HCN2 channel; 30 min in 200 nM 4βPMA,+15 ± 2
same,ΔV½ CA UNCOUPLED H^+ UNCOUPLED,HCN2 channel; 30 min in 200 nM 4βPMA,+26 ± 3
same,ΔV½ WILD TYPE,HCN2 channel; 30 min in 200 nM 4βPMA,+8 ± 2
Cc1nc2sccn2c(=O)c1CCN1CCC(=C(c2ccccc2)c2ccc(F)cc2)CC1 [R59022],DAG concentration in Xenopus oocytes,[2],double
same,Effect on channel activation,HCN1 channel,facilitates
O=c1c2ccccc2[nH]c(=S)n1CCN1CCC(=C(c2ccc(F)cc2)c2ccc(F)cc2)CC1 [R59949],DAG concentration in Xenopus oocytes,[2],double
same,Effect on channel activation,HCN1 channel,facilitates
O=c1c(-c2ccc(O)cc2)coc2cc(O)cc(O)c12 [genistein],Effect on activation curve,[3]; HCN2-R591E (CNBD disabled),facilitation
same,Genistein facilitation,[3]; cAMP insensitive HCN2 constructs,independent of the CNBD
same,Effect on activation curve,[3]; wild type HCN2,inhibition
same,Effect on activation curve,[4]; HCN1-R538E (CNBD disabled),robust facilitation
same,"Genistein facilitation, Δ(ΔV1/2), compared with HCN1-R538E","[4]; HCN1-ΔCNBD, 90 μM for 30 min",the same
same,"Genistein sensitivity, Δ(ΔV1/2)","[4]; HCN1-ΔCterm (C-linker deleted), 90 μM for 30 min",insensitive
same,Effect on activation curve,[4]; wild type HCN1,weak facilitation
"Phosphatidyl-inositol 4,5-bisphosphate [4,5-PIP2]",Effect on gating of rundown channels,"HCN1-ΔNvΔC channel; HCN1-ΔNvΔC, 5 uM 4,5-PIP2, 5 min",redepolarizes gating
same,"Response to 4,5-PIP2 facilitation of channel gating","HCN1-ΔNvΔC channel; mutants NT1, NT2 and NT3 of HCN1-ΔNvΔCterm, 5 μM 4,5-PIP2",reduced response
same,"Response (difference in V1/2) to 4,5-PIP2 versus wild type","HCN1-ΔNvΔC channel; mutants R59A, S23-3A, R112A, S45-3A of HCN1-ΔNvΔC, 5 uM 4,5-PIP2",not different from wild type
same,Effect on gating activity under rundown condition,HCN2-R591E channel; IOP-clamp,restore the gating activity
same,Effect on gating slope,HCN2-R591E channel; IOP-clamp after rundown,restores the more shallow gating slope
same,"Mean shift in V1/2 contributed by 4,5-PIP2 to intact cell gating",HCN2-R591E channel; IOP-clamp after rundown,~20 mV
